Data: US20080248030A1, “Method of Treating Angiogenic Diseases” (Children's Medical Center Corporation, priority 2005, published 2008)

Assays:
[1] = system: human melanoma (A2058); assay type: in vivo; settings: Caplostatin 30 mg/kg s.c. q.o.d; Avastin 1 mg/kg i.p. twice/week
Protocol: Combination treatment was also tested on mice bearing s.c. A2058 human melanoma, PC-3M-LN4 human prostate carcinoma or COLO-205 colon carcinoma or orthotopic intracranial U87-luciferase human glioblastoma.

[2] = system: VEGFR-2; settings: recently shown; cited from earlier work
[3] = system: LLC; experiment: Antitumor activity on C57BL/6J mice bearing s.c. LLC; settings: 30 mg/kg q.o.d., data not shown
[4] = system: BCE cells; experiment: Bovine capillary endothelial (BCE) cell proliferation assay; assay type: cell-based; settings: 10 pg/ml to 1 μg/ml TNP-470-equivalent concentration, 72 h
Protocol: For the proliferation assay, cells were washed with PBS and dispersed in a 0.05% trypsin solution. Cells were suspended (15,000 cells/ml) in DMEM supplemented with 10% BCS and 1% GPS, plated onto gelatinized 24-well culture plates (0.5 ml/well), and incubated for 24 h (37° C., 10% CO2). The media was replaced with 0.25 ml of DMEM, 5% BCS and 1% GPS and the test sample applied. Cells were challenged with free or conjugated TNP-470 (10 pg/ml to 1 μg/ml TNP-470-equivalent concentration). After 30 min of incubation, media and bFGF were added to obtain a final volume of 0.5 ml of DMEM, 5% BCS, 1% GPS and 1 ng/ml bFGF. Control cells were grown with or without bFGF. After 72 hr, cells were dispersed in trypsin, resuspended in Hematall (Fisher Scientific, Pittsburgh, Pa.), and counted in a Coulter counter.

[5] = Early mouse development; settings: injected into 7 and 17 day-old BALB/c mice
Protocol: Free and conjugated TNP-470 were injected into 7 and 17 day-old BALB/c mice in order to test their effects on normal development.

[6] = system: chick aortic ring; experiment: Chick aortic ring endothelial sprouting assay; assay type: cell-based; settings: for effect on outgrowth: 100 pg/ml
Protocol: Aortic arches were dissected from day-14 chick embryos, cut into cross-sectional fragments, and implanted in vitro in Matrigel using a modification of methods previously described (V. Muthulckaruppan, personal communication). When cultured in MCDB-131 medium supplemented with 5% fetal bovine serum, endothelial cells sprouted and vascular channel formation occurred within 24-48 hours. Free or conjugated TNP-470 (10 pg/ml to 1 μg/ml) was added to the culture.

[7] = human, in vivo; cited from earlier work
[8] = system: liver regeneration post hepatectomy; experiment: Hepatectomy model (liver regeneration); assay type: in vivo, C57BL/6J mice
Protocol: Male C57BL/6J mice underwent a partial hepatectomy through a midline incision after general anesthesia with isoflourane^33. Free or conjugated TNP-470 (30 mg/kg) were given s.c. every other day for 8 days beginning on the day of surgery according to the scheme described in FIG. 4a. Alternatively, the doses given were 60 mg/kg the day of surgery and 4 days later or 120 mg/kg once on the day of the partial hepatectomy. The liver was harvested on the 8th day, weighed and analyzed by histology.
This non-neoplastic model is a relatively fast (8 days) in vivo angiogenesis-dependent process^33. We employed the hepatectomy model to compare the endothelial cell inhibitory activity of free and conjugated TNP-470, because liver regeneration post hepatectomy is angiogenesis-dependent, similar to tumor growth^33,34.

[9] = system: A2058 human melanoma; experiment: Antitumor activity on SCID mice bearing s.c. A2058 human melanoma; assay type: in vivo; settings: summary in conclusions, tumor models not named
Description: Each group consisted of 5 mice.

Avastin: recombinant humanized antibody to Vascular Endothelial Growth Factor (VEGF), Genentech
TIC [1]: 0.47

CO[C@@H]1[C@H](OC(=O)NC(=O)CCl)CC[C@]2(CO2)[C@H]1[C@@]1(C)O[C@@H]1CC=C(C)C [TNP-470]
VEGFR-2 phosphorylation [2]: inhibit VEGFR-2 phosphorylation | induction of weight loss [3]: did | inhibition of bFGF-induced proliferation (cytostatic effect) [4]: inhibited bFGF-induced proliferation | effect on normal development (weight gain) [5]: inhibited growth, by inhibiting weight gain | effect on outgrowth [6]: completely prevented outgrowth

COc1cccc2c1C(=O)c1c(O)c3c(c(O)c1C2=O)C[C@@](O)(C(=O)CO)C[C@@H]3O[C@H]1C[C@H](N)[C@H](O)[C@H](C)O1 [doxorubicin]
t1/2α (in words) [7]: few minutes

N-(2-lydroxypropyl)methacrylamide (HPMA) copolymer-TNP-470 conjugate [HPMA copolymer-TNP-470]
TIC [1]: 029 | VEGFR-2 phosphorylation [2]: inhibit VEGFR-2 phosphorylation | inhibition of bFGF-induced proliferation (cytostatic effect) [4]: inhibited bFGF-induced proliferation | inhibition of liver regeneration ([8]; 60 mg/kg every four days): had an equivalent effect as the 30 mg/kg q.o.d. dosing schedule | inhibition of liver regeneration ([8]; single injection of 120 mg/kg at the day of hepatectomy): had an equivalent effect as the 30 mg/kg q.o.d. dosing schedule | T/C values for the conjugate (summary) [9]: 0.12-0.14 | effect on vascular sprouts ([6]; 50 pg/ml): reduced the number and length of vascular sprouts | effect on outgrowth [6]: completely prevented outgrowth
